Paper PMC11984392, “EphA2-targeted alpha-particle theranostics for enhancing PDAC treatment” (Theranostics, 2025)
Where two headings read alike, the source gives them in different places. *1 amine or outer side, *2 acyl side, *3 side chain or, on linkers, in order; H or OH if unused. Where a SMILES comes first, the peptide text is derived from it. Bridges are numbered along the chain shown (N, C = ends). [ ]: non-standard residue; d: D form. The star is where a group is joined. TATA = O=C(CC[*:1])N1CN(C(=O)CC[*:2])CN(C(=O)CC[*:3])C1; NOTA = O=C(O)CN1CCN(CC(=O)O)CCN(CC(=O)*)CC1; Hyp = O=C(O)[C@@H]1C[C@@H](O)CN1; hArg = N=C(N)NCCCC[C@H](N)C(=O)O; PEG2 = NCCOCCOCCC(=O)O; Sar = CNCC(=O)O

Assay: Ex vivo biodistribution
Parameters: species or system NSG mice
Settings: both sexes, NSG, mouse, in vivo, total radioactivity, mean ± SEM (n = 4 or 5); for tissue uptake at 2 h / tissue to tissue ratio at 2 h: 120 min p.i.; for tissue to tissue ratio at 2 h: dimensionless; for tissue uptake at 5 min: 5 min p.i.; for tissue uptake at 0.5 h: 30 min p.i.; for tissue uptake at 1.5 h: 90 min p.i.
Method: Animal studies were performed under Johns Hopkins University Animal Care and Use Committee (ACUC)-approved protocol (Principal investigator: Sridhar Nimmagadda, Ph.D. and Protocol number M021M175). Male and Female NSG mice (5-6 weeks old) were purchased from JHU immunocompromised core and used to establish xenografts by administering cells subcutaneously (top right flank, unless otherwise noted) to form various tumor models within 3-4 weeks. Following cell numbers were used: Panc1, AsPC1, BxPC3 (1 M), Hs766T and SU8686 (2 M), CFPAC and Panc1005 (5 M). Imaging or biodistribution studies (n = 3-5) were conducted on mice with tumor volumes of 100-200 mm^3. The Panc1 orthotopic tumor model was established by surgically implanting a 3-5 mm^3 section of Panc1 tumor xenograft directly onto the pancreas. The implanted tumors were allowed to grow and were ready for imaging after 10 days of implantation.
Mice with 100-200 mm^3 tumor volume were used for ex vivo biodistribution studies. For radiotracer pharmacokinetics and dosimetry studies, mice with Panc1 tumor xenograft received ~80 µCi (2.96 MBq) [^68Ga]AJ201 and were sacrificed at pre-determined time points (5, 30, 60, 90 and 120 min). All other mice were injected with ~50 µCi (1.85 MBq; 0.2 to 0.5 nmol) Ga-68 labeled radiotracer and were sacrificed at 60 min. The selected tissues were collected, weighed, counted, and their %ID/g values calculated for biodistribution analysis. For pharmacokinetics and dosimetry studies, selected tissues included blood, muscle, tumor, thymus, heart, lung, liver, pancreas, stomach, small intestine, large intestine, spleen, adrenals, kidney, bladder, femur, brain and tumor xenografts. For other studies, selected tissues were blood, muscle, tumor, heart, lung, liver, pancreas, small intestine, spleen, kidney.

[1] = iv, i.v., read-out: Adrenals uptake
[2] = iv, i.v., read-out: Bladder uptake
[3] = iv, i.v., read-out: Femur uptake
[4] = iv, i.v., read-out: Kidney uptake
[5] = iv, i.v., read-out: Large Intestine uptake
[6] = iv, i.v., read-out: Small intestine uptake
[7] = iv, i.v., read-out: Spleen uptake

Compound `CC(C)C[C@@H]1NC(=O)[C@@H]2CSCCC(=O)N3CN(CN(C3)C(=O)CCSC[C@H](NC(=O)[C@H](CC(=O)O)NC(=O)[C@H](CCCCNC(=N)N)NC(=O)[C@H](C)NC(=O)CNC(=O)CN(C)C(=O)CN(C)C(=O)CN(C)C(=O)[C@H](CCCNC(=N)N)NC(=O)CNC(=O)CCOCCOCCNC(=O)CN3CCN(CC(=O)O)CCN(CC(=O)O)CC3)C(=O)N3C[C@H](O)C[C@H]3C(=O)N[C@@H](CC(C)C)C(=O)N[C@@H](C(C)C)C(=O)N[C@@H](CC(N)=O)C(=O)N3CCC[C@H]3C(=O)N[C@@H](CC(C)C)C(=O)N2)C(=O)CCSC[C@@H](C(N)=O)NC(=O)[C@H](CCCCNC(=N)N)NC(=O)[C@H](Cc2c[nH]c3ccccc23)NC(=O)[C@@H](CC(=O)O)NC(=O)[C@@H]2CCCN2C(=O)[C@H](Cc2c[nH]cn2)NC1=O` [[^68Ga]AJ201, metal not drawn] ({NOTA-PEG2}-GR[Sar][Sar][Sar]GA[hArg]DC[Hyp]LVNPLCLHP[dD]W[hArg]C-NH2; linker 10-17-24 via TATA) has a tissue uptake at 2 h (iv, 80 uCi, i.v., read-out: Muscle uptake) of 0.26 ± 0.04 %ID/g, a tissue uptake at 2 h (iv, 80 uCi, i.v., read-out: Pancreas uptake) of 0.36 ± 0.07 %ID/g and a tissue uptake at 2 h (iv, 80 uCi, i.v., read-out: Thymus uptake) of 1.21 ± 0.52 %ID/g. For the same compound, the tissue uptake at 2 h (iv, 80 uCi, i.v., read-out: Tumor uptake) was 6.46 ± 0.39 %ID/g, the tissue to tissue ratio at 2 h (iv, 80 uCi, read-out: Tumor/Muscle ratio) was 24.9 ± 1.93 and the tissue to tissue ratio at 2 h (iv, 80 uCi, read-out: Tumor/Pancreas ratio) was 18.7 ± 2.39. For the same compound, the tissue to tissue ratio at 2 h (iv, 80 uCi, read-out: Tumor/blood ratio) was 8.36 ± 1.85, the tissue uptake at 5 min [1] was 4.91 ± 1.83 %ID/g and the tissue uptake at 5 min [2] was 28.1 ± 12.1 %ID/g. It also gave a tissue uptake at 5 min [3] of 2.77 ± 0.13 %ID/g, a tissue uptake at 5 min [4] of 37.5 ± 5.93 %ID/g and a tissue uptake at 5 min [5] of 3.67 ± 0.66 %ID/g. It also gave a tissue uptake at 5 min [6] of 3.25 ± 0.3 %ID/g, a tissue uptake at 5 min [7] of 7.95 ± 1.66 %ID/g and a tissue uptake at 0.5 h [1] of 2.44 ± 0.46 %ID/g. For the same compound, the tissue uptake at 0.5 h [2] was 53.8 ± 30.8 %ID/g, the tissue uptake at 0.5 h [3] was 1.36 ± 0.37 %ID/g and the tissue uptake at 0.5 h [4] was 56.9 ± 1.26 %ID/g. It also gave a tissue uptake at 0.5 h [5] of 1.95 ± 0.98 %ID/g, a tissue uptake at 0.5 h [6] of 1.16 ± 0.18 %ID/g and a tissue uptake at 0.5 h [7] of 3.87 ± 1.1 %ID/g. For the same compound, the tissue uptake at 1 h (iv, 60 min p.i., i.v., read-out: Bladder uptake) was 48.6 ± 15.5 %ID/g, the tissue uptake at 1 h (iv, 60 min p.i., i.v., read-out: Femur uptake) was 0.28 ± 0.06 %ID/g and the tissue uptake at 1 h (iv, 60 min p.i., i.v., read-out: Kidney uptake) was 45.5 ± 2.9 %ID/g. The tissue uptake at 1 h (iv, 60 min p.i., i.v., read-out: Large Intestine uptake) was 0.15 ± 0.01 %ID/g, the tissue uptake at 1 h (iv, 60 min p.i., i.v., read-out: Small intestine uptake) was 0.49 ± 0.07 %ID/g and the tissue uptake at 1 h (iv, 60 min p.i., i.v., read-out: Spleen uptake) was 0.74 ± 0.17 %ID/g. It also gave a tissue uptake at 1.5 h [1] of 1.85 ± 0.46 %ID/g, a tissue uptake at 1.5 h [2] of 18.3 ± 6.35 %ID/g and a tissue uptake at 1.5 h [4] of 61.8 ± 11.5 %ID/g. It also gave a tissue uptake at 1.5 h [5] of 1.46 ± 0.35 %ID/g, a tissue uptake at 1.5 h [6] of 0.6 ± 0.15 %ID/g and a tissue uptake at 1.5 h [7] of 1.81 ± 0.78 %ID/g. For the same compound, the tissue uptake at 2 h [1] was 2.69 ± 0.27 %ID/g, the tissue uptake at 2 h [2] was 19 ± 8.08 %ID/g and the tissue uptake at 2 h [4] was 52 ± 7.46 %ID/g. It also gave a tissue uptake at 2 h [5] of 1.02 ± 0.3 %ID/g, a tissue uptake at 2 h [6] of 0.45 ± 0.24 %ID/g and a tissue uptake at 2 h [7] of 1.55 ± 0.47 %ID/g. The tissue uptake at 2 h (iv, i.v., read-out: Stomach with contents uptake) was 0.3 ± 0.01 %ID/g, the tissue uptake at 1 h (60 min p.i. with blocking (non-radioactive AJ201 pre-administered), read-out: Adrenals uptake) was 2.36 ± 1.09 %ID/g and the tissue uptake at 1 h (60 min p.i. with blocking (non-radioactive AJ201 pre-administered), read-out: Bladder uptake) was 14.4 ± 13.2 %ID/g. The tissue uptake at 1 h (60 min p.i. with blocking (non-radioactive AJ201 pre-administered), read-out: Blood uptake) was 0.65 ± 0.11 %ID/g, the tissue uptake at 1 h (60 min p.i. with blocking (non-radioactive AJ201 pre-administered), read-out: Brain uptake) was 0.04 ± 0.001 %ID/g and the tissue uptake at 1 h (60 min p.i. with blocking (non-radioactive AJ201 pre-administered), read-out: Femur uptake) was 0.38 ± 0.05 %ID/g. For the same compound, the tissue uptake at 1 h (60 min p.i. with blocking (non-radioactive AJ201 pre-administered), read-out: Heart uptake) was 0.31 ± 0.05 %ID/g, the tissue uptake at 1 h (60 min p.i. with blocking (non-radioactive AJ201 pre-administered), read-out: Kidney uptake) was 71.3 ± 14.2 %ID/g and the tissue uptake at 1 h (60 min p.i. with blocking (non-radioactive AJ201 pre-administered), read-out: Large Intestine uptake) was 0.93 ± 0.4 %ID/g. It also gave a tissue uptake at 1 h (60 min p.i. with blocking (non-radioactive AJ201 pre-administered), read-out: Liver uptake) of 0.48 ± 0.07 %ID/g, a tissue uptake at 1 h (60 min p.i. with blocking (non-radioactive AJ201 pre-administered), read-out: Lung uptake) of 0.8 ± 0.14 %ID/g and a tissue uptake at 1 h (60 min p.i. with blocking (non-radioactive AJ201 pre-administered), read-out: Muscle uptake) of 0.26 ± 0.03 %ID/g. It also gave a tissue uptake at 1 h (60 min p.i. with blocking (non-radioactive AJ201 pre-administered), read-out: Pancreas uptake) of 0.3 ± 0.03 %ID/g, a tissue uptake at 1 h (60 min p.i. with blocking (non-radioactive AJ201 pre-administered), read-out: Small intestine uptake) of 0.51 ± 0.08 %ID/g and a tissue uptake at 1 h (60 min p.i. with blocking (non-radioactive AJ201 pre-administered), read-out: Spleen uptake) of 0.7 ± 0.11 %ID/g. The tissue uptake at 1 h (60 min p.i. with blocking (non-radioactive AJ201 pre-administered), read-out: Stomach with contents uptake) was 0.19 ± 0.06 %ID/g, the tissue uptake at 1 h (60 min p.i. with blocking (non-radioactive AJ201 pre-administered), read-out: Thymus uptake) was 2.28 ± 0.53 %ID/g and the tissue uptake at 1 h (60 min p.i. with blocking (non-radioactive AJ201 pre-administered), read-out: Tumor uptake) was 1.08 ± 0.24 %ID/g. It also gave a tissue to tissue ratio at 1 h (60 min p.i. with blocking (non-radioactive AJ201 pre-administered), read-out: Tumor/Muscle ratio) of 4.4 ± 1.19, a tissue to tissue ratio at 1 h (60 min p.i. with blocking (non-radioactive AJ201 pre-administered), read-out: Tumor/Pancreas ratio) of 3.5 ± 0.7 and a tissue to tissue ratio at 1 h (60 min p.i. with blocking (non-radioactive AJ201 pre-administered), read-out: Tumor/blood ratio) of 1.66 ± 0.37.
